Reference: US20240156805A1, “COMPOUND FOR INHIBITING NONSENSE-MEDIATED MRNA DECAY” (RIBOTECH CO., LTD., priority 2021, published 2024)

Key:
[1] = test system: HeLa cell line constitutively expressing the NMD-target mRNA (RLuc-beta-globin PTC); test: NMD reporter HeLa cell line, RLuc mRNA by real-time PCR; type: cell-based; conditions: 5 μM for 12 hours, FIG. 4
Text: (§1) In Example 1, a beta-globin normal gene or the gene including a premature termination codon (PTC) found in genetic diseases was inserted into the downstream of a chemiluminescence gene, Renilla luciferase (RLuc). Normal gene-inserted mRNA was not targeted by NMD, whereas when a gene having PTC was inserted, the mRNA became a NMD target, and as a result, mRNA was quickly broken down and the expression level of RLuc was reduced.
Accordingly, a HeLa cell line constitutively expressing the NMD-target mRNA was prepared, and simultaneously, the cell line was designed to constitutively express a firefly luciferase (FLuc) gene, which was not a target of NMD, and a total of three cell lines NMD20, NMD4, and NMD5 with the same composition were obtained. In order to confirm whether the HeLa cell line prepared above was suitable for measuring NMD efficiency, the following two experiments were performed.
The NMD inhibitory effect of Compounds 1 to 3 was confirmed using the HeLa cell line prepared in Example 1. After treating the cells with Compounds 1 to 3 at 5 μM for 12 hours, respectively, total RNA and protein were purified from the cells, respectively. Then, the amounts of RNA and protein were quantified respectively through real-time PCR and dual luciferase assay methods. The results were illustrated in FIG. 4.

[2] = test system: β-6bs mRNA (reporter mRNA); test: Tethering of MS2-Upf1, MS2-Upf2, MS2-Upf3 to 3' UTR of reporter mRNA in HeLa cell line, real-time PCR; type: cell-based; conditions: 5 μM for 6 hours or 12 hours; FIGS. 8 and 9
Procedure: An NMD-based search system capable of artificially reducing the amount of reporter mRNA was constructed, after artificially tethering proteins Upf1, Upf2, and Upf3X acting in each step of NMD to 3′ UTR of reporter mRNA (FIG. 7). Using this method, it was attempted to verify which step of NMD the three types of compounds acted on.
After treating the cell line with each compound at 5 μM for 6 hours or 12 hours, a cell extract was obtained. Thereafter, the relative amount of reporter mRNA was measured through real-time PCR.

UPF1 = test: Effect on phosphorylation of UPF1, western blotting; type: cell-based; conditions: 5 μM for 12 hours, FIG. 5
Procedure: Phosphorylation of UPFI was known to be one of the most important factors in NMD. In Example 3.1, the effect of the three types of compounds of the present invention on phosphorylation of UPFI was examined. The cells were treated with each compound at 5 μM for 12 hours, and then total proteins were purified. Then, western blotting was performed using each antibody capable of recognizing Upfl or Upfl phosphorylated at a specific site.

UPF1 and UPF2 = target: T1, UPF1 and UPF2 (Homo sapiens, UniProt Q92900+Q9HAU5); test: Effect on binding between UPF1 and UPF2, FLAG-UPF1 immunoprecipitation and western blotting; type: cell-based; conditions: 5 μM for 1 hour; FLAG immunoprecipitation; FIG. 6
T1 construct: expressed in transfected cells
T1 sequence (Q92900 1-1129): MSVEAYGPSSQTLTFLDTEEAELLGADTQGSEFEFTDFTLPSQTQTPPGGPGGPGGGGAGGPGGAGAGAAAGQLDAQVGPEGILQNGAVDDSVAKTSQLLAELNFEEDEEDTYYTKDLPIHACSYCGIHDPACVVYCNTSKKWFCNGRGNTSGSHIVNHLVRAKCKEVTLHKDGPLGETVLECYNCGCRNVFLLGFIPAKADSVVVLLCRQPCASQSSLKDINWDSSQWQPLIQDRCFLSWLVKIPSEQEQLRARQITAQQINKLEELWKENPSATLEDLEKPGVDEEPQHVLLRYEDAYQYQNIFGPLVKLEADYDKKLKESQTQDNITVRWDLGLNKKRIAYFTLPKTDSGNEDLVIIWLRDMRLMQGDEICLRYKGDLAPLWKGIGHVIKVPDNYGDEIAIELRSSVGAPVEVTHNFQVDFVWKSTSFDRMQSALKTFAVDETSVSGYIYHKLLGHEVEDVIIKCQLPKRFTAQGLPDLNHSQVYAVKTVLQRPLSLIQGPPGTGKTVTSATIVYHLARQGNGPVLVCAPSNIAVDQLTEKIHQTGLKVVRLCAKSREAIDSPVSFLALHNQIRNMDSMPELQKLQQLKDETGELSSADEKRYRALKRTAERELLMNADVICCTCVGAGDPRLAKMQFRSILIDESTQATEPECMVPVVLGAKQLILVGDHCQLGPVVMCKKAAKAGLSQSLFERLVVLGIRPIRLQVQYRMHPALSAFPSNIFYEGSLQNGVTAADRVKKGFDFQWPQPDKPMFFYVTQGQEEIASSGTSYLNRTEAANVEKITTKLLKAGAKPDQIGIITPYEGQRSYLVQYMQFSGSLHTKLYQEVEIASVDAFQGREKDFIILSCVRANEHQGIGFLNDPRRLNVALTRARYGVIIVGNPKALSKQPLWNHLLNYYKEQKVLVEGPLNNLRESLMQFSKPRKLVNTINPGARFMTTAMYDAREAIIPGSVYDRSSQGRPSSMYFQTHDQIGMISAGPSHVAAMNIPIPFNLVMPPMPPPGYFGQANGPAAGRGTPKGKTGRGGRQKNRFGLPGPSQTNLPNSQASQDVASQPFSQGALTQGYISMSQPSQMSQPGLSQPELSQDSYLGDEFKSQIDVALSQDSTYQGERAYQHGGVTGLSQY
T1 sequence (Q9HAU5 1-1272): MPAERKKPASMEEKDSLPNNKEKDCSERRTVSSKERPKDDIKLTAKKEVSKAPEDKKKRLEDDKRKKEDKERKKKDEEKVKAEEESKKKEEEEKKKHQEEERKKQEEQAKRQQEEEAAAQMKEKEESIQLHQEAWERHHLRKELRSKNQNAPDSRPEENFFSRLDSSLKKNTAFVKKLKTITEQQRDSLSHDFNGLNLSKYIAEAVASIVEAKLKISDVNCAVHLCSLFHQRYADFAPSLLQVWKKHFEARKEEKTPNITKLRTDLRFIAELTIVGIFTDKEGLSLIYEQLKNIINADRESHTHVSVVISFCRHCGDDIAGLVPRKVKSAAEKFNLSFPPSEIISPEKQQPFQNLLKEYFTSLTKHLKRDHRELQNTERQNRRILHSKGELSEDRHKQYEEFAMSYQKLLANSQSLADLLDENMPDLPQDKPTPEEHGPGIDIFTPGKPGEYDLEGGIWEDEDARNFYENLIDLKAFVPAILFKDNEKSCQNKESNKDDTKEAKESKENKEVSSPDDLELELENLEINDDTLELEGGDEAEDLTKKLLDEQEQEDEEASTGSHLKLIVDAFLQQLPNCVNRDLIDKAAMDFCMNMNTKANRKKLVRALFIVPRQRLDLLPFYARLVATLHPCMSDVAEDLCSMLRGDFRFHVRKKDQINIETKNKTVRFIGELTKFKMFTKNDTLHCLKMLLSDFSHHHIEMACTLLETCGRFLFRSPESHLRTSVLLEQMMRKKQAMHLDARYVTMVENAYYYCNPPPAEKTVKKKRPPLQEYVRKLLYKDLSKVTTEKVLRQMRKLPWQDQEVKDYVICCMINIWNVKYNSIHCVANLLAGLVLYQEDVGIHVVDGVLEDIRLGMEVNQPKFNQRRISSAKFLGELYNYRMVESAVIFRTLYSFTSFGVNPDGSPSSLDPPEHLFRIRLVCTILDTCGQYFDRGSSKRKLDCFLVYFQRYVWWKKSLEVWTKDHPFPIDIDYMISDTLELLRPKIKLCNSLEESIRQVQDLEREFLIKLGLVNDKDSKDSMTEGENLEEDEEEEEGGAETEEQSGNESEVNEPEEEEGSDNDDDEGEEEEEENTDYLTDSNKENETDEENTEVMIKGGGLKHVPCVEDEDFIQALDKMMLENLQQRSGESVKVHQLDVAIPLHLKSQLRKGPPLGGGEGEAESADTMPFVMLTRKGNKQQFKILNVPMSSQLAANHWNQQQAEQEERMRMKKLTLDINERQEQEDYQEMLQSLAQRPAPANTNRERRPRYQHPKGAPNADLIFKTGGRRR
Procedure: In the cell line, DNA expressing FLAG-UPF1 was transiently overexpressed.
After treating the cell line with each compound at 5 μM for 1 hour, a cell extract was obtained. Immunoprecipitation was performed on the cell extract obtained using a FLAG antibody.
Proteins before and after immunoprecipitation were analyzed by western blotting.

[3] = test system: HeLa cell line constitutively expressing the NMD-target mRNA (RLuc-beta-globin PTC); test: NMD reporter HeLa cell lines (NMD20, NMD4, NMD5), RLuc/FLuc dual luciferase assay; type: cell-based; conditions: 5 μM for 12 hours, FIG. 4
Procedure: as §1, with “reduced. […]” for “reduced.”
First, each of the prepared cell lines was treated with caffeine, which was known as a non-specific NMD inhibitor, to confirm the degree of RLuc activity to FLuc activity. […] Then, the expression levels of RLuc and FLuc proteins were measured by dual luciferase assay.
Additionally, it was attempted to determine whether the prepared HeLa cell line was suitable for performing high-throughput screening (HTS). Experiments were performed by optimizing the conditions such as the number of cells, the amounts of used reagent and buffer, and the like in a 384-well format to be suitable for HTS (FIG. 3), and NMD efficiency was measured using Wortmannin, which was a non-specific NMD inhibitor, as a control substance. […]
The NMD inhibitory effect of Compounds 1 to 3 was confirmed using the HeLa cell line prepared in Example 1. […] Then, the amounts of RNA and protein were quantified respectively through real-time PCR and dual luciferase assay methods. […]

dystrophin protein = test: Dystrophin protein in DMD patient-derived cell line, Western blotting; type: cell-based, human; conditions: 5 μM for 12 hours, FIG. 11

Row | Compound | amount of RLuc mRNA [1] | NMD step targeted (relative amount of reporter mRNA) [2] | phosphorylation of UPF1 (UPF1) | UPF1-UPF2 binding (UPF1 and UPF2) | protein translation of RLuc [3] | amount of dystrophin protein expressed in cells (dystrophin protein)
1 | Cn1c(=O)n(-c2ccc(C(C)(C)C#N)cc2)c2c3cc(-c4cnc5ccccc5c4)ccc3ncc21 [Compound 2, 2-methyl-2-{4-[3-methyl-2-oxo-8-(quinolin-3-yl)-2,3-dihydro-1H-imidazo[4,5-c]quinolin-1-yl]phenyl} propanenitrile] | significantly increased | did not target the UPF1-UPF2 and UPF2-UPF3 steps | significantly inhibited | did not significantly affect | – | –
2 | COc1cc2ncnc(-n3nc(-c4ccccn4)nc3N)c2cc1OC [Compound 3, 1-(6,7-Dimethoxy-4-quinazolinyl)-3-(2-pyridinyl)-1H-1,2,4-Triazol-5-amine] | significantly increased | did not target the UPF1-UPF2 and UPF2-UPF3 steps | did not significantly affect | did not significantly affect | – | –
3 | COc1ncc(-c2ccc3nccc(-c4ccnnc4)c3c2)cc1NS(=O)(=O)c1ccc(F)cc1F [Compound 1, 2,4-Difluoro-N-{2-(methyloxy)-5-[4-(4-pyridazinyl)-6-quinolinyl]-3-pyridinyl} benzenesulfonamide] | – | targeted a UPF1-UPF2 step | did not significantly affect | significantly inhibited | increased | increased
